Experimental data published in patent US9211310B2, “Use of a Chinese medicine composition in preparing medicaments for treating secondary prevention of myocardial infarction” (TASLY PHARMACEUTICAL GROUP CO., LTD, priority 2010, dated 2015).

Test system: patients after acute myocardial infarction
Experiment: TCM symptom score, total and single (chest pain, chest tightness, short breath, fatigue, palpitation, spontaneous perspiration, pale complexion), same clinical trial
Type: in vivo, human
Parameters: total score of TCM symptom, Mean / total score of TCM symptom, Min / total score of TCM symptom, Max / total score of TCM symptom, Md / change of total score of TCM symptom, Mean / change of total score of TCM symptom, Max / change of total score of TCM symptom, Md: scale not given here
Settings: FAS
Text: 3508 patients who were in accordance with the diagnostic standards of AMI for 28 days to 2 years and differentiated as Qi deficiency and blood stagnation syndrome by TCM were studied. 0.5 g Chinese medicine composition prepared by the method of EXAMPLE 1 (Coded as QSYQ) was administrated half an hour after meal, 3 times per day.
They included the overall survival time, angina pectoris score, TCM symptom score and life quality score, where angina pectoris score, TCM symptom score and life quality score were evaluated at randomization, in 1st, 3rd, 6th, 9th, 12th month after treatment and 18th month after follow-up.
The analysis method referred to the angina pectoris score.

[1] = 9 months after treatment-baseline
[2] = 12 months after treatment-baseline

`CC(=O)Oc1ccccc1C(=O)O` [Control group, aspirine] was tested, and the “change of pale complexion −1, number of patients” value [1] was 59, the “change of pale complexion −1, percent of patients” value [1] was “(3.45%)” and the “change of palpitation 0, number of patients” value [1] was 948. The “change of palpitation 0, percent of patients” value [1] was “(55.44%)”, the “change of palpitation 1, number of patients” value [1] was 557 and the “change of palpitation 1, percent of patients” value [1] was “(32.57%)”. For the same molecule, the “change of palpitation 2, number of patients” value [1] was 76, the “change of palpitation 2, percent of patients” value [1] was “(4.44%)” and the “change of palpitation 3, number of patients” value [1] was 7. For the same molecule, the “change of palpitation 3, percent of patients” value [1] was “(0.41%)”, the “change of palpitation −1, percent of patients” value [1] was “(6.84%)” and the “change of palpitation −2, number of patients” value [1] was 5. The “change of palpitation −2, percent of patients” value [1] was “(0.29%)”, the “change of palpitation −3, number of patients” value [1] was 0 and the “change of palpitation −3, percent of patients” value [1] was “(0.00%)”. For the same molecule, the “change of short breath 0, % of patients” value [1] was “(59.06%)”, the “change of short breath 0, number of patients” value [1] was 1010 and the “change of short breath 2, % of patients” value [1] was “(30.35%)”. The “change of short breath 2, number of patients” value [1] was 519, the “change of short breath 4, % of patients” value [1] was “(3.57%)” and the “change of short breath 4, number of patients” value [1] was 61. The “change of short breath 6, % of patients” value [1] was “(0.47%)”, the “change of short breath 6, number of patients” value [1] was 8 and the “change of short breath −2, % of patients” value [1] was “(6.26%)”. For the same molecule, the “change of short breath −2, number of patients” value [1] was 107, the “change of short breath −4, % of patients” value [1] was “(0.23%)” and the “change of short breath −4, number of patients” value [1] was 4. The “change of short breath −6, % of patients” value [1] was “(0.06%)”, the “change of short breath −6, number of patients” value [1] was 1 and the “change of spontaneous perspiration 0, number of patients” value [1] was 910. For the same molecule, the “change of spontaneous perspiration 0, percent of patients” value [1] was “(53.25%)”, the “change of spontaneous perspiration 1, number of patients” value [1] was 491 and the “change of spontaneous perspiration 1, percent of patients” value [1] was “(28.73%)”. The “change of spontaneous perspiration 2, number of patients” value [1] was 113, the “change of spontaneous perspiration 2, percent of patients” value [1] was “(6.61%)” and the “change of spontaneous perspiration 3, number of patients” value [1] was 31. For the same molecule, the “change of spontaneous perspiration 3, percent of patients” value [1] was “(1.81%)”, the “change of spontaneous perspiration −1, number of patients” value [1] was 154 and the “change of spontaneous perspiration −1, percent of patients” value [1] was “(9.01%)”. The “change of spontaneous perspiration −2, number of patients” value [1] was 10, the “change of spontaneous perspiration −2, percent of patients” value [1] was “(0.59%)” and the “change of spontaneous perspiration −3, number of patients” value [1] was 0. For the same molecule, the “change of spontaneous perspiration −3, percent of patients” value [1] was “(0.00%)”, the “change of total score of TCM symptom, Max” value [1] was 15.00 and the “change of total score of TCM symptom, Md” value [1] was −4.00. For the same molecule, the “change of total score of TCM symptom, Mean” value [1] was −4.52, the “change of total score of TCM symptom, Min” value [1] was −33.00 and the “change of short breath 0, number of patients” value (12 months after treatment) was 955. For the same molecule, the “distribution of total score of TCM symptom: Medium, number of patients” value (12 months after treatment) was 235, the “distribution of total score of TCM symptom: Medium, percentage of patients” value (12 months after treatment) was “(16.31%)” and the “distribution of total score of TCM symptom: Mild, number of patients” value (12 months after treatment) was 1205. The “distribution of total score of TCM symptom: Mild, percentage of patients” value (12 months after treatment) was “(83.62%)”, the “distribution of total score of TCM symptom: Severe, number of patients” value (12 months after treatment) was 1 and the “distribution of total score of TCM symptom: Severe, percentage of patients” value (12 months after treatment) was “(0.07%)”. The “fatigue score 0, % of patients” value (12 months after treatment) was “(36.67%)”, the “fatigue score 0, number of patients” value (12 months after treatment) was 630 and the “fatigue score 2, % of patients” value (12 months after treatment) was “(58.21%)”. For the same molecule, the “fatigue score 2, number of patients” value (12 months after treatment) was 1000, the “fatigue score 4, % of patients” value (12 months after treatment) was “(4.42%)” and the “fatigue score 4, number of patients” value (12 months after treatment) was 76. The “fatigue score 6, % of patients” value (12 months after treatment) was “(0.70%)”, the “fatigue score 6, number of patients” value (12 months after treatment) was 12 and the “pale complexion score 0, number of patients” value (12 months after treatment) was 1011. The “pale complexion score 0, percent of patients” value (12 months after treatment) was “(58.85%)”, the “pale complexion score 1, number of patients” value (12 months after treatment) was 590 and the “pale complexion score 1, percent of patients” value (12 months after treatment) was “(34.34%)”. For the same molecule, the “pale complexion score 2, number of patients” value (12 months after treatment) was 104, the “pale complexion score 2, percent of patients” value (12 months after treatment) was “(6.05%)” and the “pale complexion score 3, number of patients” value (12 months after treatment) was 13. For the same molecule, the “pale complexion score 3, percent of patients” value (12 months after treatment) was “(0.76%)”, the “palpitation score 0, number of patients” value (12 months after treatment) was 669 and the “palpitation score 0, percent of patients” value (12 months after treatment) was “(38.94%)”. For the same molecule, the “palpitation score 2, number of patients” value (12 months after treatment) was 892, the “palpitation score 2, percent of patients” value (12 months after treatment) was “(51.92%)” and the “palpitation score 4, number of patients” value (12 months after treatment) was 138. For the same molecule, the “palpitation score 4, percent of patients” value (12 months after treatment) was “(8.03%)”, the “palpitation score 6, number of patients” value (12 months after treatment) was 19 and the “palpitation score 6, percent of patients” value (12 months after treatment) was “(1.11%)”. For the same molecule, the “short breath score 0, % of patients” value (12 months after treatment) was “(31.72%)”, the “short breath score 0, number of patients” value (12 months after treatment) was 545 and the “short breath score 3, % of patients” value (12 months after treatment) was “(57.92%)”. The “short breath score 3, number of patients” value (12 months after treatment) was 995, the “short breath score 6, % of patients” value (12 months after treatment) was “(10.07%)” and the “short breath score 6, number of patients” value (12 months after treatment) was 173. For the same molecule, the “short breath score 9, % of patients” value (12 months after treatment) was “(0.29%)”, the “short breath score 9, number of patients” value (12 months after treatment) was 5 and the “spontaneous perspiration score 0, number of patients” value (12 months after treatment) was 845. For the same molecule, the “spontaneous perspiration score 0, percent of patients” value (12 months after treatment) was “(49.19%)”, the “spontaneous perspiration score 1, number of patients” value (12 months after treatment) was 804 and the “spontaneous perspiration score 1, percent of patients” value (12 months after treatment) was “(46.80%)”. For the same molecule, the “spontaneous perspiration score 2, number of patients” value (12 months after treatment) was 58, the “spontaneous perspiration score 2, percent of patients” value (12 months after treatment) was “(3.38%)” and the “spontaneous perspiration score 3, number of patients” value (12 months after treatment) was 11. The “spontaneous perspiration score 3, percent of patients” value (12 months after treatment) was “(0.64%)”, the “total score of TCM symptom, Max” value (12 months after treatment) was 37.00 and the “total score of TCM symptom, Md” value (12 months after treatment) was 8.00. For the same molecule, the “total score of TCM symptom, Mean” value (12 months after treatment) was 8.41, the “total score of TCM symptom, Min” value (12 months after treatment) was 0.00 and the “change of fatigue 0, % of patients” value [2] was “(47.08%)”. For the same molecule, the “change of fatigue 0, number of patients” value [2] was 805, the “change of fatigue 2, % of patients” value [2] was “(35.38%)” and the “change of fatigue 2, number of patients” value [2] was 605. For the same molecule, the “change of fatigue 4, % of patients” value [2] was “(9.59%)”, the “change of fatigue 4, number of patients” value [2] was 164 and the “change of fatigue 6, % of patients” value [2] was “(1.46%)”. The “change of fatigue 6, number of patients” value [2] was 25, the “change of fatigue −2, % of patients” value [2] was “(5.85%)” and the “change of fatigue −2, number of patients” value [2] was 100. The “change of fatigue −4, % of patients” value [2] was “(0.64%)”, the “change of fatigue −4, number of patients” value [2] was 11 and the “change of fatigue −6, % of patients” value [2] was “(0.00%)”. For the same molecule, the “change of fatigue −6, number of patients” value [2] was 0, the “change of pale complexion 0, number of patients” value [2] was 1202 and the “change of pale complexion 0, percent of patients” value [2] was “(70.37%)”. The “change of pale complexion 1, number of patients” value [2] was 450, the “change of pale complexion 1, percent of patients” value [2] was “(26.35%)” and the “change of pale complexion −1, number of patients” value [2] was 56. For the same molecule, the “change of pale complexion −1, percent of patients” value [2] was “(3.28%)”, the “change of palpitation 0, number of patients” value [2] was 882 and the “change of palpitation 0, percent of patients” value [2] was “(51.58%)”. The “change of palpitation 1, number of patients” value [2] was 602, the “change of palpitation 1, percent of patients” value [2] was “(35.20%)” and the “change of palpitation 2, number of patients” value [2] was 102. The “change of palpitation 2, percent of patients” value [2] was “(5.96%)”.
